Source: patent publication US9079866B2, “Flap modulators” (JANSSEN PHARMACEUTICA NV, priority 2013, dated 2015)
pIC50, pKi: −log10 of the molar value. Read-outs that look alike come from different tables or passages of the source.

Key:
[1] = molecular target: human FLAP (Homo sapiens (Human), UniProt P20292); assay: FLAP binding assay (HTRF format); conditions: HTRF format
Outline: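 Binding of compounds to FLAP read out as HTRF ratio. Values are the mean of two assay plates, each sample run in duplicate per plate.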

[2] = system: leukotriene pathway in human whole blood (LTB4 levels); assay: Human whole blood assay (A23187-stimulated LTB4); assay type: cell-based; conditions: Homo sapiens, read-out: LTB4 IC50 1:1
Outline: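 Blood (heparin) diluted 1:1 RPMI; compound pre-incubation 15 min, 37° Celsius; A23187 7 μg/mL, 30 min, 37° Celsius; plasma LTB4 by commercial kit. IC50 via 4-parameter equation.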

[3] = human whole blood diluted 1:1, A23187-stimulated
[4] = human FLAP wild type, average of two plates, duplicates
[5] = human whole blood diluted 1:1 in RPMI, A23187-stimulated LTB4

human FLAP, sequence (P20292 whole entry): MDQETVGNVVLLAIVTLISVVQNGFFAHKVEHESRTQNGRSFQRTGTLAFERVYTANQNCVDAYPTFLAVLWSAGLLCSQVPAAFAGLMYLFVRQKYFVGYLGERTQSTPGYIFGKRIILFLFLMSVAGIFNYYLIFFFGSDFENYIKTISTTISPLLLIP

pKi ([1]; wild type FLAP)	pIC50 [2, 3]	pKi [1, 4]	pIC50 [2, 5]	SMILES
7.73	6.40	–	–	Nc1ncc(-c2ccc(-c3ccccc3Oc3cc(C4CC4)ncn3)cc2F)cn1 [Example 637, 5-{2′-[(6-Cyclopropylpyrimidin-4-yl)oxy]-3-fluorobiphenyl-4-yl}pyrimidin-2-amine]
–	–	7.96	6.76	Nc1cnc(-c2ccc(-c3ccccc3S(=O)(=O)N(CCO)CCO)cc2F)cn1 [Example 138, 4′-(5-Aminopyrazin-2-yl)-3′-fluoro-N,N-bis(2-hydroxyethyl)biphenyl-2-sulfonamide]
7.15	6.47	–	–	Cc1cc(-c2ccccc2S(=O)(=O)NC(C)(C)C)ccc1-c1cnc(N)cn1 [Example 569, 4′-(5-Aminopyrazin-2-yl)-N-tert-butyl-3′-methylbiphenyl-2-sulfonamide]
–	–	7.24	6.71	Nc1cnc(-c2ccc(-c3ccccc3S(=O)(=O)N3CCNCC3)cc2F)cn1 [Example 46, 5-[3-Fluoro-2′-(piperazin-1-ylsulfonyl)biphenyl-4-yl]pyrazin-2-amine]
–	–	8.22	7.37	Nc1cnc(-c2ccc(-c3ccccc3S(=O)(=O)NC3CC3)cc2F)cn1 [Example 89, 4′-(5-Aminopyrazin-2-yl)-N-cyclopropyl-3′-fluorobiphenyl-2-sulfonamide]
–	–	8.30	6.91	Nc1cnc(-c2ccc(-c3ccccc3S(=O)(=O)N[C@H]3CCCC[C@@H]3O)cc2F)cn1 [Example 162, 4′-(5-Aminopyrazin-2-yl)-3′-fluoro-N-((1S,2S)-2-hydroxycyclohexyl)-[1,1′-biphenyl]-2-sulfonamide]
–	–	8.05	6.92	Nc1ncc(-c2ccc(-c3ccccc3S(=O)(=O)NCC3CC3)cc2F)cn1 [Example 283, 4′-(2-Aminopyrimidin-5-yl)-N-(cyclopropylmethyl)-3′-fluorobiphenyl-2-sulfonamide trifluoroacetic acid]
–	–	6.76	5.78	Nc1cnc(-c2ccc(-c3ccccc3SC(F)(F)F)cc2F)cn1 [Example 189, 5-{3-Fluoro-2′-[(trifluoromethyl)sulfanyl]biphenyl-4-yl}pyrazin-2-amine]
–	–	9.00	8.22	CC(C)(C)NS(=O)(=O)c1ccccc1-c1ccc(-c2cnc3[nH]ccc3c2)c(F)c1 [Example 367, N-tert-Butyl-3′-fluoro-4′-(1H-pyrrolo[2,3-b]pyridin-5-yl)biphenyl-2-sulfonamide]
–	–	9.00	7.82	CC(C)(C)NS(=O)(=O)c1ccccc1-c1ccc(-c2cnc3[nH]ccc3n2)c(F)c1 [Example 371, N-tert-Butyl-3′-fluoro-4′-(5H-pyrrolo[2,3-b]pyrazin-2-yl)biphenyl-2-sulfonamide]
9.15	7.26	–	–	CC(C)(C)NS(=O)(=O)c1ccccc1-c1cnc(-c2cnc(N)nc2)c(F)c1 [Example 675, 2-[6-(2-Aminopyrimidin-5-yl)-5-fluoropyridin-3-yl]-N-tert-butylbenzenesulfonamide]
8.70	7.14	–	–	CNS(=O)(=O)c1ccccc1-c1ccc(-c2cnc3[nH]ccc3c2)c(F)c1 [Example 426, 3′-Fluoro-N-methyl-4′-(1H-pyrrolo[2,3-b]pyridin-5-yl)biphenyl-2-sulfonamide]
–	–	8.70	7.68	CCC(C)(C)NS(=O)(=O)c1ccccc1-c1ccc(-c2cnc(N)cn2)c(F)c1 [Example 12, 4′-(5-Aminopyrazin-2-yl)-N-(1,1-dimethylpropyl)-3′-fluorobiphenyl-2-sulfonamide]
8.30	7.89	–	–	Nc1cnc(-c2ccc(-c3ccc(C(F)(F)F)cc3C(=O)N3CCOCC3)cc2F)cn1 [Example 521, 5-[3-Fluoro-2′-(morpholin-4-ylcarbonyl)-4′-(trifluoromethyl)biphenyl-4-yl]pyrazin-2-amine]
–	–	7.33	6.35	Cc1cnc(NS(=O)(=O)c2ccccc2-c2ccc(-c3cnc(N)cn3)c(F)c2)cn1 [Example 167, 4′-(5-Aminopyrazin-2-yl)-3′-fluoro-N-(5-methylpyrazin-2-yl)biphenyl-2-sulfonamide]
